Laboratory results published in ChEMBL document CHEMBL5154935, “Design, Synthesis, and Biological Evaluation of Novel Evodiamine Derivatives as Potential Antihepatocellular Carcinoma Agents” (J Med Chem, 2022).
Calls of active or inactive are those of the source. The calls are words filed in the database; no cut-off is given here.

How the values were obtained:
Huh-7 [1] = assay: Induction of mitochondrial membrane potential changes in human Huh-7 cells assessed as decrease in TMRE positive cells at 80 nM incubated for 24 hrs by TMRE staining based flow cytometry; type: functional, cell-based
HepG2 = assay: Antiproliferative activity against human HepG2 cells treated for 72 hrs by MTT assay; type: functional, cell-based; conditions: HepG2, 72 h
[2] = biological target: DNA topoisomerase 2-alpha (Homo sapiens) (UniProt P11388); assay: Inhibition of human Top2-alpha expressed in baculovirus assessed as inhibition of relaxation of supercoiled pBR322 plasmid DNA at 100 uM incubated for 30 mins in presence of ATP by ethidium bromide staining based agarose gel electrophoresis analysis relative to control
DNA topoisomerase 2-alpha (Homo sapiens), sequence (P11388 whole entry): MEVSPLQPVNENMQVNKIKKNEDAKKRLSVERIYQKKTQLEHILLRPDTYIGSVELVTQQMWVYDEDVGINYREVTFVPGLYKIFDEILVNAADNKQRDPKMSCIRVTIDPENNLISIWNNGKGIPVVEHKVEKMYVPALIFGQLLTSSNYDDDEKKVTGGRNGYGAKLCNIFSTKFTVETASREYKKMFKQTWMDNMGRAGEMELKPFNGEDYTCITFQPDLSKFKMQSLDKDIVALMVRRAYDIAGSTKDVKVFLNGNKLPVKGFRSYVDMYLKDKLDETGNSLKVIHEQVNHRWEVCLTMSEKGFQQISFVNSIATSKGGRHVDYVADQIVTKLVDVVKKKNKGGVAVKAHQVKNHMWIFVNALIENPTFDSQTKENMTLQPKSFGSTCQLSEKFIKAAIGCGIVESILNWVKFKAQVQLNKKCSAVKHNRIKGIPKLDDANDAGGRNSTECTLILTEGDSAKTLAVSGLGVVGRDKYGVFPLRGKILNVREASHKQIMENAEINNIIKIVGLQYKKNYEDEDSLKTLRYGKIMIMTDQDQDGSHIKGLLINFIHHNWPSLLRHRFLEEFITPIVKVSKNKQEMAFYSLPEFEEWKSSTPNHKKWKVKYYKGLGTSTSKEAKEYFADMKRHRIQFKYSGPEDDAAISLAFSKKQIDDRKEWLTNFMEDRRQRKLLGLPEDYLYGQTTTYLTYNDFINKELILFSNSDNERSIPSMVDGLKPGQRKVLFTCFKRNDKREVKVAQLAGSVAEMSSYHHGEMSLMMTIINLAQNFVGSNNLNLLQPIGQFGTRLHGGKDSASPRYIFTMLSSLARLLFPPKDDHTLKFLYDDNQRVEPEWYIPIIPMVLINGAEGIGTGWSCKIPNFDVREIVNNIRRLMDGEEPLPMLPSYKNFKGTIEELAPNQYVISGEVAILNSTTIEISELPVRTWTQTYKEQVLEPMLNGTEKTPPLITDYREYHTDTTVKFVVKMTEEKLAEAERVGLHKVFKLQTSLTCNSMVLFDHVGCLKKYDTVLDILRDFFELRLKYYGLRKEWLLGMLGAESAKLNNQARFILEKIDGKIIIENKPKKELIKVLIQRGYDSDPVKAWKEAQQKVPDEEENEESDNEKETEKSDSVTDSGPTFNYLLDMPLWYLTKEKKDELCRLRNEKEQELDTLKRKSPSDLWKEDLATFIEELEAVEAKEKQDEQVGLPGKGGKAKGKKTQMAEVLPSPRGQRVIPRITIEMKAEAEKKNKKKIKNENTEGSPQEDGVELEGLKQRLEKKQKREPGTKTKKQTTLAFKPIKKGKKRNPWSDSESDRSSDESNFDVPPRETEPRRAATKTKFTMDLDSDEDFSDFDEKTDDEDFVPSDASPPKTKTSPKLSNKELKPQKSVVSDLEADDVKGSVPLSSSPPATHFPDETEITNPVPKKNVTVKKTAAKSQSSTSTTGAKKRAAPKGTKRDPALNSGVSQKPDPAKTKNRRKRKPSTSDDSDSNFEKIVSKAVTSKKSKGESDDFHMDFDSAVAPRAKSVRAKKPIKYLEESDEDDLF

Huh-7 [3] = assay: Antiproliferative activity against human Huh-7 cells assessed as inhibition of cell viability treated for 24 to 72 hrs by MTT assay; type: functional, cell-based; conditions: time 24-72 hrs, DDE = dose-dependent effect
SK-HEP1 [4] = assay: Antiproliferative activity against human SK-Hep1 cells assessed as inhibition of cell viability treated for 24 to 72 hrs by MTT assay; type: functional, cell-based; conditions: time 24-72 hrs, DDE = dose-dependent effect
HCC [5] = assay: Inhibition of clonogenicity in human HCC cells assessed as decrease in number of colonies at 3 to 18 nM incubated for 1 to 2 weeks by optical microscopy analysis; type: functional, cell-based; conditions: dose 3-18 nM, time 1-2 weeks
HCC [6] = assay: Inhibition of cell proliferation of human HCC cells treated for 24 hrs by EdU staining based fluorescence microscopy assay; type: functional; conditions: dose 3-18 nM, DDE = dose-dependent effect
SK-HEP1 [7] = assay: Induction of cell cycle arrest in human SK-Hep1 cells assessed as accumulation at S phase at 80 nM treated for 24 hrs by PI staining based flow cytometry (reference value: 24.98 %); type: functional
Huh-7 [8] = assay: Induction of cell cycle arrest in human Huh-7 cells assessed as accumulation at G2 phase at 80 nM treated for 24 hrs by PI staining based flow cytometry (reference value: 15.90 %); type: functional
Huh-7 [9] = assay: Induction of cell cycle arrest in human Huh-7 cells assessed as accumulation at S phase at 80 nM treated for 24 hrs by PI staining based flow cytometry (reference value: 23.33 %); type: functional
Huh-7 [10] = assay: Induction of cell cycle arrest in human Huh-7 cells assessed as accumulation at G1 phase at 40 nM treated for 24 hrs by PI staining based flow cytometry (reference value: 60.77 %); type: functional
Huh-7 [11] = assay: Induction of cell cycle arrest in human Huh-7 cells assessed as accumulation at G1 phase at 10 nM treated for 24 hrs by PI staining based flow cytometry (reference value: 60.77 %); type: functional
Huh-7 [12] = assay: Induction of cell cycle arrest in human Huh-7 cells assessed as accumulation at S phase at 10 nM treated for 24 hrs by PI staining based flow cytometry (reference value: 23.33 %); type: functional
SK-HEP1 [13] = assay: Induction of cell cycle arrest in human SK-Hep1 cells assessed as accumulation at S phase at 40 nM treated for 24 hrs by PI staining based flow cytometry (reference value: 24.98 %); type: functional
Huh-7 [14] = assay: Induction of apoptosis in human Huh-7 cells assessed as change in cell membrane permeability by measuring blue fluorescence incubated for 24 hrs by Hoechst staining based microscopy; type: functional; conditions: dose 12-60 nM, DDE = dose-dependent effect
SK-HEP1 [15] = assay: Induction of apoptosis in human SK-Hep1 cells assessed as cell shrinkage incubated for 24 hrs by Giemsa staining based microscopy; type: functional; conditions: dose 12-60 nM, DDE = dose-dependent effect
Huh-7 [16] = assay: Induction of apoptosis in human Huh-7 cells assessed as viable cells at 10 nM incubated for 24 hrs by annexin V-FITC/PI staining flow cytometry (reference value: 97.3 %); type: functional; conditions: read-out: Activity
Huh-7 [17] = assay: Induction of apoptosis in human Huh-7 cells assessed as early apoptotic cells at 10 nM incubated for 24 hrs by annexin V-FITC/PI staining flow cytometry (reference value: 0.33 %); type: functional
Huh-7 [18] = assay: Induction of apoptosis in human Huh-7 cells assessed as necrotic cells at 10 nM incubated for 24 hrs by annexin V-FITC/PI staining flow cytometry (reference value: 1.08 %); type: functional
Huh-7 [19] = assay: Induction of apoptosis in human Huh-7 cells assessed as viable cells at 40 nM incubated for 24 hrs by annexin V-FITC/PI staining flow cytometry (reference value: 97.3 %); type: functional; conditions: read-out: Activity
Huh-7 [20] = assay: Induction of apoptosis in human Huh-7 cells assessed as early apoptotic cells at 80 nM incubated for 24 hrs by annexin V-FITC/PI staining flow cytometry (reference value: 0.33 %); type: functional
SK-HEP1 [21] = assay: Induction of apoptosis in human SK-Hep1 cells assessed as viable cells at 10 nM incubated for 24 hrs by annexin V-FITC/PI staining flow cytometry (reference value: 97.8 %); type: functional; conditions: read-out: Activity
SK-HEP1 [22] = assay: Induction of apoptosis in human SK-Hep1 cells assessed as viable cells at 40 nM incubated for 24 hrs by annexin V-FITC/PI staining flow cytometry (reference value: 97.8 %); type: functional; conditions: read-out: Activity
Huh-7 [23] = assay: Inhibition of cell migration in human Huh-7 cells incubated for 24 hrs by scratch wound healing assay; type: functional, cell-based; conditions: dose 3-18 nM, DDE = dose-dependent effect
SK-HEP1 [24] = assay: Inhibition of cell migration in human SK-HEP1 cells incubated for 24 hrs by scratch wound healing assay; type: functional, cell-based; conditions: dose 3-18 nM, DDE = dose-dependent effect
HSC-T6 [25] = assay: Suppression of TGF-beta-1-stimulated rat HSC-T6 cells activation assessed as reduction in Col-1 levels at 10 to 80 nM preincubated with TGFbeta-1 followed by compound addition and measured after 24 to 48 hrs by ELISA; type: functional, cell-based; conditions: dose 10-80 nM, time 24-48 hrs
HSC-T6 [26] = assay: Suppression of TGF-beta-1-stimulated rat HSC-T6 cells activation assessed as reduction in Col-1 levels preincubated with TGFbeta-1 followed by compound addition and measured after 24 to 48 hrs by ELISA; type: functional, cell-based; conditions: dose 10-80 nM, time 24-48 hrs, DDE = dose-dependent effect
[27] = Induction of apoptosis in rat HSC-T6 cells assessed as viable cells at 10 nM pretreated with TGFbeta-1 for 1 day followed by compound addition and measured after 24 hrs by flow cytometry (reference value: 97.5 %); type: functional; conditions: read-out: Activity
[28] = Induction of apoptosis in rat HSC-T6 cells assessed as late apoptotic cells at 10 nM pretreated with TGFbeta-1 for 1 day followed by compound addition and measured after 24 hrs by flow cytometry (reference value: 1.76 %); type: functional
[29] = Induction of apoptosis in rat HSC-T6 cells assessed as necrotic cells at 10 nM pretreated with TGFbeta-1 for 1 day followed by compound addition and measured after 24 hrs by flow cytometry (reference value: 0.56 %); type: functional
[30] = Induction of apoptosis in rat HSC-T6 cells assessed as viable cells at 40 nM pretreated with TGFbeta-1 for 1 day followed by compound addition and measured after 24 hrs by flow cytometry (reference value: 97.5 %); type: functional; conditions: read-out: Activity
[31] = Induction of apoptosis in rat HSC-T6 cells assessed as early apoptotic cells at 80 nM pretreated with TGFbeta-1 for 1 day followed by compound addition and measured after 24 hrs by flow cytometry (reference value: 0.17 %); type: functional
[32] = Induction of apoptosis in rat HSC-T6 cells assessed as late apoptotic cells at 80 nM pretreated with TGFbeta-1 for 1 day followed by compound addition and measured after 24 hrs by flow cytometry (reference value: 1.76 %); type: functional

Row | Compound | Activity (Huh-7 [1]) | IC50 (HepG2) | inhibition [2] | Activity (Huh-7 [3]) | Activity (SK-HEP1 [4]) | inhibition (HCC [5]) | inhibition (HCC [6]) | Activity (SK-HEP1 [7]) | Activity (Huh-7 [8]) | Activity (Huh-7 [9]) | Activity (Huh-7 [10]) | Activity (Huh-7 [11]) | Activity (Huh-7 [12]) | Activity (SK-HEP1 [13]) | Activity (Huh-7 [14]) | Activity (SK-HEP1 [15]) | viability at 0.01 µM (Huh-7 [16]) | Activity (Huh-7 [17]) | Activity (Huh-7 [18]) | viability at 0.04 µM (Huh-7 [19]) | further results
1 | O=C1c2cc(F)cc(F)c2N(c2cccc(F)c2)C2c3[nH]c4ccc(O)cc4c3CCN12 (stereo unspecified) | Active | 0.09 µM | 67% | Dde | Dde | Active | Dde | 4.5% | 78.5% | 10.85% | 15.01% | 46.78% | 26.7% | 4.11% | Dde | Dde | 93.1% | 0.73% | 1.53% | 79.5% | Activity (Huh-7 [20]): 1.71%; viability at 0.01 µM (SK-HEP1 [21]): 92.9%; viability at 0.04 µM (SK-HEP1 [22]): 74.7%; inhibition (Huh-7 [23]): Dde; inhibition (SK-HEP1 [24]): Dde; inhibition (HSC-T6 [25]): Active; Activity (HSC-T6 [26]): Dde; viability at 0.01 µM [27]: 94%; Activity [28]: 5.1%; Activity [29]: 0.8%; viability at 0.04 µM [30]: 98.3%; Activity [31]: 0.72%; Activity [32]: 41.8%
2 | CC(=O)Oc1ccc2[nH]c3c(c2c1)CCN1C(=O)c2cc(F)cc(F)c2N(c2cccc(F)c2)C31 (stereo unspecified) | Active | 0.18 µM | 63.7% | Dde | Dde | Active | Dde | 3.88% | 74.38% | 8.43% | 28.25% | 51.9% | 34.56% | 4.18% | Dde | Dde | 93.8% | 0.63% | 1.51% | 62.9% | Activity (Huh-7 [20]): 1.1%; viability at 0.01 µM (SK-HEP1 [21]): 86.7%; viability at 0.04 µM (SK-HEP1 [22]): 75.9%; inhibition (Huh-7 [23]): Dde; inhibition (SK-HEP1 [24]): Dde; inhibition (HSC-T6 [25]): Active; Activity (HSC-T6 [26]): Dde; viability at 0.01 µM [27]: 89.9%; Activity [28]: 8.67%; Activity [29]: 0.93%; viability at 0.04 µM [30]: 85.6%; Activity [31]: 0.83%; Activity [32]: 53%
